ChEMBL document CHEMBL1201862, “PubChem BioAssay data set” (2004)
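In this assay, cells in 96-well plates receive the compound at five concentrations for 48 hours. Endpoints are linearly interpolated between the surrounding concentrations. GI50 is the concentration that inhibits growth by half.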 Active and inactive are the calls of the source. No stated cut-off is given here; in the data, active = GI50 up to about 1.1 µM and inactive = higher. Where a SMILES comes first, the peptide text is derived from it. [ ]: non-standard residue; d: D form. The star is where a group is joined. mTyr = N[CH](Cc1cccc(O)c1)C(=O)O; Cbz = O=C(OCc1ccccc1)*; OBn = c1ccc(CO*)cc1

Tests used:
Assay in all cases: NCI tumour cell line growth inhibition, 48 h
SNB-75 = system: SNB-75
LOX IMVI = system: LOX IMVI
T47D = system: T47D
BT-549 = system: BT-549
HCC 2998 = system: HCC 2998
NCI-H23 = system: NCI-H23
KM12 = system: KM12
SK-MEL-28 = system: SK-MEL-28
CAKI-1 = system: CAKI-1
SK-OV-3 = system: SK-OV-3
PC-3 = system: PC-3
SK-MEL-5 = system: SK-MEL-5
M14 = system: M14
SK-MEL-2 = system: SK-MEL-2
DU-145 = system: DU-145
NCI-H522 = system: NCI-H522
MDA-MB-231 = system: MDA-MB-231
NCI-H226 = system: NCI-H226
SN12C = system: SN12C
Hs-578T = system: Hs-578T

SMILES | GI50 (SNB-75) | GI50 (LOX IMVI) | GI50 (T47D) | GI50 (BT-549) | GI50 (HCC 2998) | GI50 (NCI-H23) | GI50 (KM12) | GI50 (SK-MEL-28) | GI50 (CAKI-1) | GI50 (SK-OV-3) | GI50 (PC-3) | GI50 (SK-MEL-5) | GI50 (M14) | GI50 (SK-MEL-2) | GI50 (DU-145) | GI50 (NCI-H522) | GI50 (MDA-MB-231) | GI50 (NCI-H226) | GI50 (SN12C) | GI50 (Hs-578T)
COc1cc(/C=C2\C(=O)N(c3cc(Cl)ccc3Cl)C(c3ccccc3)S2(=O)=O)cc(OC)c1OC (stereo not drawn) | 61.1 µM (inactive) | 55.6 µM (inactive) | 26.1 µM (inactive) | 83.2 µM (inactive) | > 100 µM (inactive) | 96.4 µM (inactive) | 36.6 µM (inactive) | 63.8 µM (inactive) | > 100 µM (inactive) | > 100 µM (inactive) | 55.8 µM (inactive) | 57.4 µM (inactive) | 40.6 µM (inactive) | > 100 µM (inactive) | > 100 µM (inactive) | 29.5 µM (inactive) | > 100 µM (inactive) | 25.4 µM (inactive) | 62.1 µM (inactive) | 
CO/N=C(\C)CCC#Cc1ccccc1C(=O)OC |  | > 10 µM (inactive) | > 10 µM (inactive) | > 10 µM (inactive) | > 10 µM (inactive) | > 10 µM (inactive) | > 10 µM (inactive) | > 10 µM (inactive) | > 10 µM (inactive) | > 10 µM (inactive) | > 10 µM (inactive) | > 10 µM (inactive) | > 10 µM (inactive) | > 10 µM (inactive) | > 10 µM (inactive) |  | > 10 µM (inactive) | > 10 µM (inactive) | > 10 µM (inactive) | > 10 µM (inactive)
Cc1cccc(C)c1NC(=O)C(=O)CC(=O)/C=C/c1ccccc1 | > 100 µM (inactive) | > 100 µM (inactive) | > 100 µM (inactive) | > 100 µM (inactive) | > 100 µM (inactive) | > 100 µM (inactive) | > 100 µM (inactive) | > 100 µM (inactive) | > 100 µM (inactive) | > 100 µM (inactive) | > 100 µM (inactive) | > 100 µM (inactive) | > 100 µM (inactive) | > 100 µM (inactive) |  | > 100 µM (inactive) | > 100 µM (inactive) | > 100 µM (inactive) | > 100 µM (inactive) | > 100 µM (inactive)
CC(=O)O[C@H]1CC2C(C3CCC(C(C)CCC(N)=O)[C@]31C)[C@H](OC(C)=O)C[C@@H]1CC3(CC[C@]21C)OOC1(CC[C@]2(C)C4C[C@H](OC(C)=O)[C@]5(C)C(C(C)CCC(N)=O)CCC5C4[C@H](OC(C)=O)C[C@@H]2C1)OO3 (stereo partly drawn) | 1.56 µM (inactive) | 1.4 µM (inactive) |  | 1.2 µM (inactive) | 0.966 µM (active) | 1.49 µM (inactive) | 1.66 µM (inactive) |  | 1.88 µM (inactive) | 2.06 µM (inactive) | 1.41 µM (inactive) | 1.33 µM (inactive) | 1.95 µM (inactive) | 1.84 µM (inactive) | 1.73 µM (inactive) | 2.18 µM (inactive) | 1.51 µM (inactive) | 1.33 µM (inactive) | 1.79 µM (inactive) | 2.17 µM (inactive)
CN1CCN(c2nc3cc(F)ccc3n3cccc23)CC1 | 29 µM (inactive) | 15.8 µM (inactive) | 29 µM (inactive) | 49.2 µM (inactive) | 42.1 µM (inactive) | 36 µM (inactive) | 39.2 µM (inactive) | 21.4 µM (inactive) | 22 µM (inactive) | 45.4 µM (inactive) | 28.4 µM (inactive) | 20.6 µM (inactive) | 18 µM (inactive) |  |  | 46.5 µM (inactive) | 44.2 µM (inactive) | 13.7 µM (inactive) | 48.5 µM (inactive) | 31.4 µM (inactive)
Nc1cc(OCC2CCCCC2)nc(N)n1 | 61.2 µM (inactive) | > 100 µM (inactive) |  | > 100 µM (inactive) | > 100 µM (inactive) | 84.5 µM (inactive) | > 100 µM (inactive) | > 100 µM (inactive) | > 100 µM (inactive) | > 100 µM (inactive) | > 100 µM (inactive) | 37.5 µM (inactive) | > 100 µM (inactive) | > 100 µM (inactive) | > 100 µM (inactive) | > 100 µM (inactive) | > 100 µM (inactive) | > 100 µM (inactive) | > 100 µM (inactive) | > 100 µM (inactive)
C/C(=N\N=C(/S)SCc1ccccc1)c1ccccn1 | 2.92 µM (inactive) |  |  | 1.13 µM (inactive) | 0.0476 µM (active) | < 0.01 µM (active) | 0.266 µM (active) |  | < 0.0504 µM (active) | < 0.01 µM (active) | < 0.01 µM (active) | 0.0635 µM (active) | < 0.0267 µM (active) | 1.27 µM (inactive) | 1.54 µM (inactive) | 0.311 µM (active) | < 0.01 µM (active) | < 0.01 µM (active) | < 0.0269 µM (active) | 2.62 µM (inactive)
COC(=O)C(Cc1cccc(O)c1)NC(=O)C(CC(=O)OCc1ccccc1)NC(=O)OCc1ccccc1 (stereo not drawn) (Cbz-Asp(OBn)-[mTyr]-OMe; configuration not given here) | > 100 µM (inactive) |  | 15.9 µM (inactive) | > 100 µM (inactive) | > 100 µM (inactive) | > 100 µM (inactive) | > 100 µM (inactive) | > 100 µM (inactive) |  |  | > 100 µM (inactive) | > 100 µM (inactive) | > 100 µM (inactive) | > 100 µM (inactive) |  |  | > 100 µM (inactive) | > 100 µM (inactive) | > 100 µM (inactive) | > 100 µM (inactive)
